In the supplement of paper PMC6045584:
± gives the standard deviation of the averaged measurements.

These test systems were tested with Nc1ncn([C@H]2C[C@H](O)[C@@H](CO)O2)c(=O)n1 [DECITABINE] (assay: surviving fraction relative to DMSO-only wells; higher = less growth inhibition). Details: 50 nM; exposure time: 5 days.
Summary of the method: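 Tumour cell lines were grown to log phase and seeded at 250–500 cells per well in 384-well plates. They were exposed continuously to inhibitors at 0.5, 1, 5, 10, 50, 100, 500 and 1000 nM for five days, beginning 24 hours after seeding. Surviving fraction is CellTiter-Glo luminescence normalised to the median of DMSO-only wells.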

Test System	surviving fraction
SUM149.B1*.S BREAST	0.749 ± 0.062
93VU HEADNECK	0.931 ± 0.035
LM7 BONE	0.939 ± 0.027
143B BONE	1.13 ± 0.11
SUM159 BREAST	1.05 ± 0.012
SUM149 BREAST	0.366 ± 0.0027
MDAMB361 BREAST	0.906 ± 0.19
SAOS2 BONE	1.01 ± 0.051
ASKA SYNOVIAL	1.03 ± 0.067
HCC1395 BREAST	1.26 ± 0.045
HCC1954 BREAST	1.13 ± 0.13
CME SYNOVIAL	0.987 ± 0.083
VCAP PROSTATE	1.09 ± 0.035
YAMATO SYNOVIAL	1.02 ± 0.081
HCC202 BREAST	1.09 ± 0.26
HELA CERVIX	1.1 ± 0.03
SG27 HEADNECK	1.2 ± 0.065
CAL72 BONE	1.06 ± 0.097
MDAMB134 BREAST	1.1 ± 0.12
C33A CERVIX	0.9227 ± 0.0078

Test System	surviving fraction
SKBR3 BREAST	1.03 ± 0.094
MHM BONE	1.05 ± 0.044
VP229 BREAST	0.966 ± 0.067
SYO1 SYNOVIAL	0.663 ± 0.015
ZR751 BREAST	0.988 ± 0.12
KPD BONE	0.534 ± 0.023
SIHA CERVIX	1.07 ± 0.055
DU4475 BREAST	0.537 ± 0.066
BT549 BREAST	0.721 ± 0.051
COLO320DM LARGE INTESTINE	1.03 ± 0.071
T47D BREAST	1.12 ± 0.049
H23 LUNG	0.803 ± 0.036
NCIH441 LUNG	0.71 ± 0.057
HCT15 LARGE INTESTINE	1.05 ± 0.032
SCC90 HEADNECK	1.13 ± 0.074
MDAMB453 BREAST	1.05 ± 0.061
MG63 BONE	0.432 ± 0.017
A549 LUNG	1.03 ± 0.017
MDAMB468 BREAST	0.836 ± 0.04

Same assay, conditions: 100 nM; exposure time: 5 days

Test System	surviving fraction
SUM149.B1*.S BREAST	0.66 ± 0.062
93VU HEADNECK	0.933 ± 0.017
LM7 BONE	0.91 ± 0.042
143B BONE	1.11 ± 0.076
SUM159 BREAST	1.028 ± 0.004
SUM149 BREAST	0.359 ± 0.022
MDAMB361 BREAST	0.915 ± 0.17
SAOS2 BONE	0.88 ± 0.07
ASKA SYNOVIAL	0.952 ± 0.079
HCC1395 BREAST	1.25 ± 0.086
HCC1954 BREAST	1.22 ± 0.023
CME SYNOVIAL	0.812 ± 0.063
VCAP PROSTATE	1.09 ± 0.11
YAMATO SYNOVIAL	1.04 ± 0.034
HCC202 BREAST	1.09 ± 0.16
HELA CERVIX	1.08 ± 0.017
SG27 HEADNECK	1.18 ± 0.14
CAL72 BONE	1.03 ± 0.14
MDAMB134 BREAST	1.25 ± 0.059
C33A CERVIX	0.909 ± 0.075

Test System	surviving fraction
SKBR3 BREAST	1 ± 0.1
MHM BONE	1.02 ± 0.023
VP229 BREAST	0.959 ± 0.028
SYO1 SYNOVIAL	0.629 ± 0.013
ZR751 BREAST	1.13 ± 0.12
KPD BONE	0.464 ± 0.012
SIHA CERVIX	1.08 ± 0.085
DU4475 BREAST	0.415 ± 0.054
BT549 BREAST	0.724 ± 0.045
COLO320DM LARGE INTESTINE	0.928 ± 0.014
T47D BREAST	1.08 ± 0.024
H23 LUNG	0.721 ± 0.057
NCIH441 LUNG	0.591 ± 0.12
HCT15 LARGE INTESTINE	0.987 ± 0.032
SCC90 HEADNECK	1.11 ± 0.018
MDAMB453 BREAST	1.02 ± 0.059
MG63 BONE	0.356 ± 0.008
A549 LUNG	1.03 ± 0.03
MDAMB468 BREAST	0.658 ± 0.046

Same assay, conditions: 500 nM; exposure time: 5 days

Test System	surviving fraction
SUM149.B1*.S BREAST	0.553 ± 0.043
93VU HEADNECK	0.747 ± 0.03
LM7 BONE	0.749 ± 0.044
143B BONE	0.992 ± 0.11
SUM159 BREAST	1.03 ± 0.015
SUM149 BREAST	0.261 ± 0.0076
MDAMB361 BREAST	0.99 ± 0.2
SAOS2 BONE	0.742 ± 0.057
ASKA SYNOVIAL	0.711 ± 0.075
HCC1395 BREAST	1.17 ± 0.073
HCC1954 BREAST	1.29 ± 0.044
CME SYNOVIAL	0.484 ± 0.022
VCAP PROSTATE	1.01 ± 0.094
YAMATO SYNOVIAL	0.907 ± 0.034
HCC202 BREAST	1.23 ± 0.18
HELA CERVIX	1.15 ± 0.065
SG27 HEADNECK	1.11 ± 0.063
CAL72 BONE	0.958 ± 0.097
MDAMB134 BREAST	1.15 ± 0.042
C33A CERVIX	0.697 ± 0.1

Test System	surviving fraction
SKBR3 BREAST	0.996 ± 0.017
MHM BONE	1.08 ± 0.042
VP229 BREAST	0.871 ± 0.056
SYO1 SYNOVIAL	0.439 ± 0.02
ZR751 BREAST	0.865 ± 0.012
KPD BONE	0.379 ± 0.026
SIHA CERVIX	0.983 ± 0.055
DU4475 BREAST	0.194 ± 0.015
BT549 BREAST	0.537 ± 0.064
COLO320DM LARGE INTESTINE	0.8568 ± 0.0037
T47D BREAST	1.04 ± 0.049
H23 LUNG	0.614 ± 0.077
NCIH441 LUNG	0.494 ± 0.047
HCT15 LARGE INTESTINE	0.835 ± 0.026
SCC90 HEADNECK	1.3 ± 0.25
MDAMB453 BREAST	0.88 ± 0.015
MG63 BONE	0.302 ± 0.016
A549 LUNG	1.02 ± 0.036
MDAMB468 BREAST	0.391 ± 0.02

Same assay, conditions: 1000 nM; exposure time: 5 days

Test System	surviving fraction
SUM149.B1*.S BREAST	0.496 ± 0.061
93VU HEADNECK	0.657 ± 0.007
LM7 BONE	0.742 ± 0.048
143B BONE	0.956 ± 0.031
SUM159 BREAST	0.9957 ± 0.0076
SUM149 BREAST	0.245 ± 0.012
MDAMB361 BREAST	0.921 ± 0.084
SAOS2 BONE	0.581 ± 0.12
ASKA SYNOVIAL	0.6847 ± 0.0058
HCC1395 BREAST	1.09 ± 0.031
HCC1954 BREAST	1.08 ± 0.044
CME SYNOVIAL	0.48 ± 0.042
VCAP PROSTATE	0.875 ± 0.062
YAMATO SYNOVIAL	0.811 ± 0.035
HCC202 BREAST	1.009 ± 0.0014
HELA CERVIX	0.944 ± 0.032
SG27 HEADNECK	1.19 ± 0.16
CAL72 BONE	0.782 ± 0.2
MDAMB134 BREAST	1.22 ± 0.016
C33A CERVIX	0.685 ± 0.082

Test System	surviving fraction
SKBR3 BREAST	0.931 ± 0.089
MHM BONE	1.04 ± 0.038
VP229 BREAST	0.798 ± 0.097
SYO1 SYNOVIAL	0.383 ± 0.0062
ZR751 BREAST	0.866 ± 0.059
KPD BONE	0.353 ± 0.044
SIHA CERVIX	0.988 ± 0.11
DU4475 BREAST	0.167 ± 0.0061
BT549 BREAST	0.452 ± 0.058
COLO320DM LARGE INTESTINE	0.792 ± 0.04
T47D BREAST	1.06 ± 0.057
H23 LUNG	0.562 ± 0.048
NCIH441 LUNG	0.405 ± 0.056
HCT15 LARGE INTESTINE	0.893 ± 0.032
SCC90 HEADNECK	1.05 ± 0.17
MDAMB453 BREAST	0.757 ± 0.053
MG63 BONE	0.291 ± 0.011
A549 LUNG	0.908 ± 0.031
MDAMB468 BREAST	0.341 ± 0.043
